Data as given in PMC5218480 (PLoS ONE, 2017).

System: MV-4-11 cells
Experiment: Gene expression microarray analysis (Affymetrix PrimeView) and GSEA
Type: cell-based, human
Parameters: RFU PODN (11730768_x_at) / Fold change /veh PODN (11730768_x_at) / RFU LINC00158 (11744669_a_at) / Fold change /veh LINC00158 (11744669_a_at) / RFU DUSP10 (11751237_a_at) / Fold change /veh DUSP10 (11751237_a_at) / RFU ID3 (11757404_x_at) / Fold change /veh ID3 (11757404_x_at) / RFU PLEKHG5 (11737974_s_at) / Fold change /veh PLEKHG5 (11737974_s_at) / RFU LRRC4B (11730491_at) / Fold change /veh LRRC4B (11730491_at) / RFU GIMAP4 (11747438_a_at) / Fold change /veh GIMAP4 (11747438_a_at) / RFU KRT8 (11758183_x_at) / Fold change /veh KRT8 (11758183_x_at) / RFU CNN1 (11734310_a_at) / Fold change /veh CNN1 (11734310_a_at) / RFU VPS37D (11726825_at) / Fold change /veh VPS37D (11726825_at) / RFU C10orf10 (11716522_x_at) / Fold change /veh C10orf10 (11716522_x_at) / RFU KIR2DL2 /// KIR2DL4 /// KIR2DL5A /// KIR2DL5B /// KIR2DS1 /// KIR2DS2 /// KIR2DS3 /// KIR2DS4 /// KIR3DL3 /// KIR3DL3 /// KIR3DS1 (11738374_at) / Fold change /veh KIR2DL2 /// KIR2DL4 /// KIR2DL5A /// KIR2DL5B /// KIR2DS1 /// KIR2DS2 /// KIR2DS3 /// KIR2DS4 /// KIR3DL3 /// KIR3DL3 /// KIR3DS1 (11738374_at) / RFU C1QL1 (11718748_at) / Fold change /veh C1QL1 (11718748_at) / RFU TMPRSS4 (11747572_a_at) / Fold change /veh TMPRSS4 (11747572_a_at) / RFU HAMP (11756126_x_at) / Fold change /veh HAMP (11756126_x_at) / RFU RNFT2 (11725882_a_at) / Fold change /veh RNFT2 (11725882_a_at) / RFU NR4A2 (11747474_a_at) / Fold change /veh NR4A2 (11747474_a_at) / RFU ABCC12 (11746883_a_at) / Fold change /veh ABCC12 (11746883_a_at) / RFU TMEM136 (11760407_x_at) / Fold change /veh TMEM136 (11760407_x_at) / RFU CLDN22 /// WWC2 (11732394_at) / Fold change /veh CLDN22 /// WWC2 (11732394_at) / RFU HLA-DPB1 (11760878_x_at) / Fold change /veh HLA-DPB1 (11760878_x_at) / RFU SPINT1 (11716480_a_at) / Fold change /veh SPINT1 (11716480_a_at) / RFU GAP43 (11754022_s_at) / Fold change /veh GAP43 (11754022_s_at) / RFU A4GNT (11735810_at) / Fold change /veh A4GNT (11735810_at) / RFU PRB3 (11715151_x_at) / Fold change /veh PRB3 (11715151_x_at) / RFU TUBB4B (11761932_at) / Fold change /veh TUBB4B (11761932_at) / RFU CAPN14 (11732068_a_at) / Fold change /veh CAPN14 (11732068_a_at) / RFU TMCC2 (11721928_a_at) / Fold change /veh TMCC2 (11721928_a_at) / RFU IRGQ (11745062_a_at) / Fold change /veh IRGQ (11745062_a_at) / RFU FAM174B (11720279_a_at) / Fold change /veh FAM174B (11720279_a_at) / RFU TMPRSS4 (11748680_a_at) / Fold change /veh TMPRSS4 (11748680_a_at) / RFU FAM212B (11763350_a_at) / Fold change /veh FAM212B (11763350_a_at) / RFU PLEKHG5 (11743358_a_at) / Fold change /veh PLEKHG5 (11743358_a_at) / RFU ZSCAN30 (11745921_a_at) / Fold change /veh ZSCAN30 (11745921_a_at) / RFU CMKLR1 (11741424_a_at) / Fold change /veh CMKLR1 (11741424_a_at) / RFU LOC101060620 /// MAPK8IP1 (11723275_at) / Fold change /veh LOC101060620 /// MAPK8IP1 (11723275_at) / RFU SPTSSB (11747773_x_at) / Fold change /veh SPTSSB (11747773_x_at) / RFU PRSS12 (11739890_at) / Fold change /veh PRSS12 (11739890_at) / RFU BIN1 (11741810_x_at) / Fold change /veh BIN1 (11741810_x_at) / RFU WNT11 (11732464_a_at) / Fold change /veh WNT11 (11732464_a_at) / RFU C10orf10 (11716521_a_at) / Fold change /veh C10orf10 (11716521_a_at) / RFU C5orf56 (11738089_at) / Fold change /veh C5orf56 (11738089_at) / RFU CYB561 (11721691_x_at) / Fold change /veh CYB561 (11721691_x_at) / RFU ANKRD19P (11752326_a_at) / Fold change /veh ANKRD19P (11752326_a_at) / RFU OR2T12 /// OR2T33 /// OR2T8 (11738714_s_at) / Fold change /veh OR2T12 /// OR2T33 /// OR2T8 (11738714_s_at) / RFU VCAN (11748164_a_at) / Fold change /veh VCAN (11748164_a_at) / RFU JSRP1 (11732532_at) / Fold change /veh JSRP1 (11732532_at) / RFU KRTAP10-11 (11738290_x_at) / Fold change /veh KRTAP10-11 (11738290_x_at) / RFU MYO3A (11730013_a_at) / Fold change /veh MYO3A (11730013_a_at) / RFU EBF3 (11725865_a_at) / Fold change /veh EBF3 (11725865_a_at) / RFU CAMK2N1 (11719241_x_at) / Fold change /veh CAMK2N1 (11719241_x_at) / RFU C5orf56 (11738088_a_at) / Fold change /veh C5orf56 (11738088_a_at) / RFU OLFML3 (11715873_a_at) / Fold change /veh OLFML3 (11715873_a_at) / RFU LOC100653217 /// NTM (11731650_a_at) / Fold change /veh LOC100653217 /// NTM (11731650_a_at) / RFU MAPK11 (11762145_a_at) / Fold change /veh MAPK11 (11762145_a_at) / RFU FIZ1 (11724087_x_at) / Fold change /veh FIZ1 (11724087_x_at) / RFU OASL (11726364_x_at) / Fold change /veh OASL (11726364_x_at) / RFU SOX15 (11748057_x_at) / Fold change /veh SOX15 (11748057_x_at) / RFU CD79A (11719716_a_at) / Fold change /veh CD79A (11719716_a_at) / RFU HIST1H1D (11736915_at) / Fold change /veh HIST1H1D (11736915_at) / RFU CASKIN2 (11723855_a_at) / Fold change /veh CASKIN2 (11723855_a_at) / RFU LOC730098 (11760151_x_at) / Fold change /veh LOC730098 (11760151_x_at) / RFU OR4N2 (11742367_at) / Fold change /veh OR4N2 (11742367_at) / RFU PRRT2 (11749266_a_at) / Fold change /veh PRRT2 (11749266_a_at) / RFU SNX32 (11753110_a_at) / Fold change /veh SNX32 (11753110_a_at) / RFU CDHR5 (11726645_a_at) / Fold change /veh CDHR5 (11726645_a_at) / RFU RCAN1 (11760418_a_at) / Fold change /veh RCAN1 (11760418_a_at) / RFU FAM167A (11723789_a_at) / Fold change /veh FAM167A (11723789_a_at) / RFU FAM26E (11764081_at) / Fold change /veh FAM26E (11764081_at) / RFU ISYNA1 (11749810_s_at) / Fold change /veh ISYNA1 (11749810_s_at) / RFU ACY1 (11761880_at) / Fold change /veh ACY1 (11761880_at) / RFU 11764098_at / Fold change /veh 11764098_at / RFU SAMD14 (11745864_x_at) / Fold change /veh SAMD14 (11745864_x_at) / RFU NPB (11741838_a_at) / Fold change /veh NPB (11741838_a_at) / RFU TMPRSS6 (11731388_a_at) / Fold change /veh TMPRSS6 (11731388_a_at) / RFU KRTAP10-2 (11738614_at) / Fold change /veh KRTAP10-2 (11738614_at) / RFU ARHGAP8 /// PRR5-ARHGAP8 (11727945_x_at) / Fold change /veh ARHGAP8 /// PRR5-ARHGAP8 (11727945_x_at) / RFU KRTAP5-7 /// NADSYN1 (11734609_at) / Fold change /veh KRTAP5-7 /// NADSYN1 (11734609_at) / RFU RASL12 (11751679_a_at) / Fold change /veh RASL12 (11751679_a_at) / RFU CDKN2B (11736163_a_at) / Fold change /veh CDKN2B (11736163_a_at) / RFU PRF1 (11729649_at) / Fold change /veh PRF1 (11729649_at) / RFU, ZNF638 /// ZNF638-IT1 / Fold change vs veh, ZNF638 /// ZNF638-IT1 / RFU, PANK3 / Fold change vs veh, PANK3 / RFU, SH3YL1 / Fold change vs veh, SH3YL1 / RFU, ZEB2 / Fold change vs veh, ZEB2 / RFU, NRIP1 / Fold change vs veh, NRIP1 / RFU, PTTG1IP / Fold change vs veh, PTTG1IP / RFU, CAPN2 / Fold change vs veh, CAPN2 / RFU, MED14 / Fold change vs veh, MED14 / RFU, SNORA58 / Fold change vs veh, SNORA58 / RFU, C1orf63 / Fold change vs veh, C1orf63 / RFU, LRRFIP1 / Fold change vs veh, LRRFIP1 / RFU, NDUFAF7 / Fold change vs veh, NDUFAF7 / RFU, SLC12A2 / Fold change vs veh, SLC12A2 / RFU, IBTK / Fold change vs veh, IBTK / RFU, ESF1 / Fold change vs veh, ESF1 / Fold change vs veh, TMEM50B / RFU, TAOK1 / Fold change vs veh, TAOK1 / RFU, ACBD3 / Fold change vs veh, ACBD3 / RFU, TMA16 / Fold change vs veh, TMA16 / RFU, RWDD3 / Fold change vs veh, RWDD3 / RFU, BCAT1 / Fold change vs veh, BCAT1 / RFU, EDEM3 / Fold change vs veh, EDEM3 / RFU, TMEM33 / Fold change vs veh, TMEM33 / RFU, WDR75 / Fold change vs veh, WDR75 / RFU, AHCTF1 / Fold change vs veh, AHCTF1 / RFU, TFRC / Fold change vs veh, TFRC / RFU, ZDHHC17 / Fold change vs veh, ZDHHC17 / RFU, NOM1 / Fold change vs veh, NOM1 / RFU, ARL8B / Fold change vs veh, ARL8B / RFU, ZBTB11 / Fold change vs veh, ZBTB11 / RFU, TAMM41 / Fold change vs veh, TAMM41 / RFU, KIAA1704 /// LOC100996395 / Fold change vs veh, KIAA1704 /// LOC100996395 / RFU, ING1 / Fold change vs veh, ING1 / RFU, TRMT61B / Fold change vs veh, TRMT61B / RFU, FUBP3 / Fold change vs veh, FUBP3 / RFU, TP53 / Fold change vs veh, TP53 / RFU, TNKS2 / Fold change vs veh, TNKS2 / RFU, ZFP14 / Fold change vs veh, ZFP14 / RFU, ACTR2 / Fold change vs veh, ACTR2 / RFU, PPP3R1 / Fold change vs veh, PPP3R1 / RFU, PIK3R1 / Fold change vs veh, PIK3R1 / RFU, HNRNPA1 / Fold change vs veh, HNRNPA1 / RFU, RNF170 / Fold change vs veh, RNF170 / RFU, ZNF28 / Fold change vs veh, ZNF28 / RFU, RNGTT / Fold change vs veh, RNGTT / RFU, OGT / Fold change vs veh, OGT / RFU, BRD1 / Fold change vs veh, BRD1 / RFU, MARS / Fold change vs veh, MARS / RFU, ZNF655 / Fold change vs veh, ZNF655 / RFU, FAHD1 / Fold change vs veh, FAHD1 / RFU, BDP1 / Fold change vs veh, BDP1 / RFU, LRRCC1 / Fold change vs veh, LRRCC1 / RFU, ARID1A / Fold change vs veh, ARID1A / RFU, ZNF146 / Fold change vs veh, ZNF146 / RFU, ZNF330 / Fold change vs veh, ZNF330 / RFU, GPN3 / Fold change vs veh, GPN3 / RFU, C9orf123 / Fold change vs veh, C9orf123 / RFU, N4BP2L2 / Fold change vs veh, N4BP2L2 / RFU, ARFIP1 / Fold change vs veh, ARFIP1 / RFU, FAM179B / Fold change vs veh, FAM179B / RFU, BCL10 / Fold change vs veh, BCL10 / RFU, UHRF1BP1L / Fold change vs veh, UHRF1BP1L / RFU, BET1 / Fold change vs veh, BET1 / RFU, CNOT2 / Fold change vs veh, CNOT2 / RFU, ZNF268 / Fold change vs veh, ZNF268 / Fold change vs veh, ZNF507 / RFU, DGCR2 / Fold change vs veh, DGCR2 / RFU, WDSUB1 / Fold change vs veh, WDSUB1 / Fold change vs veh, HSP90B1 /// MIR3652 / RFU, ADSS / Fold change vs veh, ADSS / RFU, GK / Fold change vs veh, GK / RFU, ZNF148 / Fold change vs veh, ZNF148 / RFU, TAF9 / Fold change vs veh, TAF9 / RFU, SLC1A5 / Fold change vs veh, SLC1A5 / RFU, SLMO2 / Fold change vs veh, SLMO2 / RFU, ABCC4 / Fold change vs veh, ABCC4 / RFU, LOC101060439 /// RAP1B / Fold change vs veh, LOC101060439 /// RAP1B / RFU, RFX7 / Fold change vs veh, RFX7 / RFU, GTPBP10 / Fold change vs veh, GTPBP10 / RFU, CNEP1R1 / Fold change vs veh, CNEP1R1 / RFU, BIVM-ERCC5 /// ERCC5 / Fold change vs veh, BIVM-ERCC5 /// ERCC5 / RFU, ILF3 / Fold change vs veh, ILF3 / RFU 11762660_at / Fold change /veh 11762660_at / RFU VCAN (11757783_s_at) / Fold change /veh VCAN (11757783_s_at) / RFU DDX43 (11728927_at) / Fold change /veh DDX43 (11728927_at) / RFU KRT8 (11758188_x_at) / Fold change /veh KRT8 (11758188_x_at) / RFU NKD1 (11759106_at) / Fold change /veh NKD1 (11759106_at) / RFU SRD5A1 (11742802_a_at) / Fold change /veh SRD5A1 (11742802_a_at) / RFU TPSAB1 /// TPSB2 (11721975_s_at) / Fold change /veh TPSAB1 /// TPSB2 (11721975_s_at) / RFU GSTM3 (11746129_a_at) / Fold change /veh GSTM3 (11746129_a_at) / RFU IL23R (11737362_x_at) / Fold change /veh IL23R (11737362_x_at) / RFU TMEM51 (11727254_a_at) / Fold change /veh TMEM51 (11727254_a_at) / RFU PIWIL2 (11732686_x_at) / Fold change /veh PIWIL2 (11732686_x_at) / RFU ORM1 (11744905_x_at) / Fold change /veh ORM1 (11744905_x_at) / RFU CCDC152 (11743942_at) / Fold change /veh CCDC152 (11743942_at) / RFU ECM1 (11717891_a_at) / Fold change /veh ECM1 (11717891_a_at) / RFU IL23R (11748794_a_at) / Fold change /veh IL23R (11748794_a_at) / RFU TNFAIP8L3 (11732012_x_at) / Fold change /veh TNFAIP8L3 (11732012_x_at) / RFU MBOAT4 (11741988_at) / Fold change /veh MBOAT4 (11741988_at) / RFU 11764193_at / Fold change /veh 11764193_at / RFU TMEM53 (11763286_at) / Fold change /veh TMEM53 (11763286_at) / RFU MAGEB2 (11727129_at) / Fold change /veh MAGEB2 (11727129_at) / RFU TMEM200A (11744735_a_at) / Fold change /veh TMEM200A (11744735_a_at) / RFU CCDC152 (11751479_a_at) / Fold change /veh CCDC152 (11751479_a_at) / RFU FAM211A (11726209_a_at) / Fold change /veh FAM211A (11726209_a_at) / RFU RGS16 (11746705_a_at) / Fold change /veh RGS16 (11746705_a_at) / RFU VCAN (11755009_s_at) / Fold change /veh VCAN (11755009_s_at) / RFU RHOB (11743442_s_at) / Fold change /veh RHOB (11743442_s_at) / RFU RGS16 (11720943_a_at) / Fold change /veh RGS16 (11720943_a_at) / RFU RGS16 (11720944_at) / Fold change /veh RGS16 (11720944_at) / RFU, VPS4B / Fold change vs veh, VPS4B / RFU, CREB1 / Fold change vs veh, CREB1 / RFU, DNAJC13 / Fold change vs veh, DNAJC13 / RFU, GNAQ / Fold change vs veh, GNAQ / RFU, CDK5R1 / Fold change vs veh, CDK5R1 / RFU, ZRANB3 / Fold change vs veh, ZRANB3 / RFU, CUL4A / Fold change vs veh, CUL4A / RFU, CCNY / Fold change vs veh, CCNY / RFU, UFL1 / Fold change vs veh, UFL1 / RFU, COG3 / Fold change vs veh, COG3 / RFU, DIAPH2 / Fold change vs veh, DIAPH2 / RFU, SKA2 / Fold change vs veh, SKA2 / RFU, AFF3 / Fold change vs veh, AFF3 / RFU, LMF1 / Fold change vs veh, LMF1 / RFU, IPO11 / Fold change vs veh, IPO11 / RFU, DFFB / Fold change vs veh, DFFB / RFU, FOXP1 / Fold change vs veh, FOXP1 / RFU, CARD8 / Fold change vs veh, CARD8 / RFU, STRN3 / Fold change vs veh, STRN3 / RFU, ADK / Fold change vs veh, ADK / RFU, RASSF2 / Fold change vs veh, RASSF2 / RFU, WIPF1 / Fold change vs veh, WIPF1 / RFU, LARP1B / Fold change vs veh, LARP1B / RFU, RASA1 / Fold change vs veh, RASA1 / RFU, RB1 / Fold change vs veh, RB1 / RFU, PPFIA1 / Fold change vs veh, PPFIA1 / RFU, MAT2A / Fold change vs veh, MAT2A / RFU, CCT5 / Fold change vs veh, CCT5 / RFU, WDR92 / Fold change vs veh, WDR92 / RFU, CUX1 / Fold change vs veh, CUX1 / RFU, TTC7A / Fold change vs veh, TTC7A / RFU, TMEM135 / Fold change vs veh, TMEM135 / RFU, DEPTOR / Fold change vs veh, DEPTOR / RFU, CPM / Fold change vs veh, CPM / RFU, DNAJB6 / Fold change vs veh, DNAJB6 / RFU, CACNA2D3 / Fold change vs veh, CACNA2D3 / RFU, DTX4 / Fold change vs veh, DTX4 / RFU, TFCP2 / Fold change vs veh, TFCP2 / RFU, GMCL1 /// GMCL1P1 / Fold change vs veh, GMCL1 /// GMCL1P1 / RFU, AEBP2 / Fold change vs veh, AEBP2 / RFU, SNHG1 /// SNORD22 /// SNORD25 /// SNORD26 /// SNORD27 /// SNORD28 /// SNORD29 /// SNORD31 / Fold change vs veh, SNHG1 /// SNORD22 /// SNORD25 /// SNORD26 /// SNORD27 /// SNORD28 /// SNORD29 /// SNORD31 / Fold change (Aza/veh), C12orf56 (ProbeSet 11735607_a_at) / Fold change (ACY-1035/veh), C12orf56 (ProbeSet 11735607_a_at) / Fold change (Aza/veh), FGFR1OP (ProbeSet 11751329_s_at) / Fold change (ACY-1035/veh), FGFR1OP (ProbeSet 11751329_s_at) / Fold change (Aza/veh), VPS36 (ProbeSet 11739960_a_at) / Fold change (ACY-1035/veh), VPS36 (ProbeSet 11739960_a_at) / RFU SYPL1 (11715823_x_at) / Fold change /veh SYPL1 (11715823_x_at) / RFU IGFBP7 (11715501_s_at) / Fold change /veh IGFBP7 (11715501_s_at) / RFU REEP3 (11722064_at) / Fold change /veh REEP3 (11722064_at) / RFU IGLL1 (11728026_x_at) / Fold change /veh IGLL1 (11728026_x_at): dose or concentration left out as unconfirmed
Conditions: ProbeSet 11716844_s_at; LIST D

## Nc1ncn([C@@H]2O[C@H](CO)[C@@H](O)[C@H]2O)c(=O)n1 [azacitidine]
  RFU, DNAJC13: 111.36 RFU
